The values that follow come from patent US20230085307A1, “PYRIDAZINONE COMPOUND AND HERBICIDE” (NISSAN CHEMICAL CORPORATION, priority 2019, published 2023).

SMILES strings stand for the structures.

For the first assay, the system named is windgrass. Nature of the assay: Test Example 4: herbicidal effect by soil treatment (Table 19, symbol L). The format is in vivo, windgrass (Apera spica-venti). To be noted: amount of applied herbicide 320 g/ha. An outline of the steps:
(§1)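 Pre-emergence style soil spray: seeds under ~1.5 cm sterilized diluvial soil received a uniform coat of emulsion diluted to the predetermined herbicide amount. Greenhouse 25–30° C; readout at week three on previously defined criteria.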
Take `C=Cc1ccc2sc(-c3ccccc3OC)c(-c3c(O)c(C)nn(C)c3=O)c2c1` [2-185]: the “L: windgrass, herbicidal effect rating” value is recorded as 0 (Herbicidal rate of 5% or less (almost no effect)).

In another assay the test system is windgrass. Nature of the assay: Test Example 5: herbicidal effect by foliage application, plastic box (Table 20, symbol L). The format is in vivo, windgrass (Apera spica-venti). The note with it: foliage application, 320 g/ha, evaluated three weeks after application. In outline:
(§2)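 Plants were sown into sterilized diluvial soil under about 1.5 cm cover and kept in a greenhouse at 25° C. to 30° C. Fourteen days on, foliage received an even spray of the diluted emulsion. Herbicidal or crop effect was judged three weeks afterwards.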
`C=Cc1ccc2sc(-c3ccccc3OC)c(-c3c(O)c(C)nn(C)c3=O)c2c1` [2-185]: the “herbicidal effect on L: windgrass (criteria 0-5)” value was 1 (Herbicidal rate of 5% or more and less than 20%).

The subject of a further assay is Italian ryegrass. Nature of the assay: Test Example 4: herbicidal effect by soil treatment (Table 19, symbol K). The class given is in vivo, Italian ryegrass (Lolium multiflorum). To be noted: amount of applied herbicide 320 g/ha. An outline of the steps:
as §1
In the case of `C=Cc1ccc2sc(-c3ccccc3OC)c(-c3c(O)c(C)nn(C)c3=O)c2c1` [2-185], the “K: Italian ryegrass, herbicidal effect rating” value was 0 (Herbicidal rate of 5% or less (almost no effect)).

A further assay has as its system Japanese bulrush. Nature of the assay: Test Example 1: herbicidal activity, application before weed generation under submerged conditions (Table 16, symbol B). The class given is in vivo, Japanese bulrush (Schoenoplectus juncoides). To be noted: 320 g/ha applied herbicide. In outline: (§3)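 Emulsion formulation, water-diluted to set dose, was put onto the flooded surface (4 cm depth, alluvial soil) the same day weeds were sown and 2.5-leaf rice transplanted. After 3 weeks at 25-30 °C under glass, each species was rated 0 (≤5% kill) to 5 (≥90% kill).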
Consider `C=Cc1ccc2sc(-c3ccccc3OC)c(-c3c(O)c(C)nn(C)c3=O)c2c1` [2-185], for which the “Herbicidal effect on B: Japanese bulrush (grade 0-5)” value was 5 (Herbicidal rate of 90% or more (almost completely withered)).

The test system of another assay is barnyard grass. Nature of the assay: Test Example 5: herbicidal effect by foliage application, plastic box (Table 20, symbol H). To be noted: foliage application, 320 g/ha, evaluated three weeks after application. The class given is in vivo, barnyard grass (Echinochloa crus-galli). An outline of the steps:
as §2
As for `C=Cc1ccc2sc(-c3ccccc3OC)c(-c3c(O)c(C)nn(C)c3=O)c2c1` [2-185], the “herbicidal effect on H: barnyard grass (criteria 0-5)” value is on record as 0 (Herbicidal rate of 5% or less (almost no effect)).

For the next assay, the system named is southern crabgrass. Nature of the assay: Test Example 5: herbicidal effect by foliage application, plastic box (Table 20, symbol F). The class given is in vivo, southern crabgrass (Digitaria ciliaris). The note with it: foliage application, 320 g/ha, evaluated three weeks after application. In outline:
as §2
Turning to `C=Cc1ccc2sc(-c3ccccc3OC)c(-c3c(O)c(C)nn(C)c3=O)c2c1` [2-185], the “herbicidal effect on F: southern crabgrass (criteria 0-5)” value is 2 (Herbicidal rate of 20% or more and less than 40%).

Another assay deals with oval-leafed pondweed. Nature of the assay: Test Example 1: herbicidal activity, application before weed generation under submerged conditions (Table 16, symbol C). The class given is in vivo, oval-leafed pondweed (Monochoria vaginalis). To be noted: 320 g/ha applied herbicide. An outline of the steps: as §3
As to `C=Cc1ccc2sc(-c3ccccc3OC)c(-c3c(O)c(C)nn(C)c3=O)c2c1` [2-185], the “Herbicidal effect on C: oval-leafed pondweed (grade 0-5)” value was 5 (Herbicidal rate of 90% or more (almost completely withered)).

For the next assay, the system named is velvetleaf. Nature of the assay: Test Example 5: herbicidal effect by foliage application, plastic box (Table 20, symbol M). The format is in vivo, velvetleaf (Abutilon theophrasti). The note with it: foliage application, 320 g/ha, evaluated three weeks after application. An outline of the steps: as §2
In the case of `C=Cc1ccc2sc(-c3ccccc3OC)c(-c3c(O)c(C)nn(C)c3=O)c2c1` [2-185], the “herbicidal effect on M: velvetleaf (criteria 0-5)” value is 5 (Herbicidal rate of 90% or more (almost completely withered)).

For a further assay, the system named is blackgrass. Nature of the assay: Test Example 5: herbicidal effect by foliage application, plastic box (Table 20, symbol J). The class given is in vivo, blackgrass (Alopecurus myosuroides). To be noted: foliage application, 320 g/ha, evaluated three weeks after application. An outline of the steps: as §2
For `C=Cc1ccc2sc(-c3ccccc3OC)c(-c3c(O)c(C)nn(C)c3=O)c2c1` [2-185], the “herbicidal effect on J: blackgrass (criteria 0-5)” value is 1 (Herbicidal rate of 5% or more and less than 20%).

The test system of the next assay is chickweed. Nature of the assay: Test Example 4: herbicidal effect by soil treatment (Table 19, symbol P). The format is in vivo, common chickweed (Stellaria media). The note with it: amount of applied herbicide 320 g/ha. In outline:
as §1
Turning to `C=Cc1ccc2sc(-c3ccccc3OC)c(-c3c(O)c(C)nn(C)c3=O)c2c1` [2-185], the “P: chickweed, herbicidal effect rating” value was 0 (Herbicidal rate of 5% or less (almost no effect)).

A further assay has as its system rice flat sedge. Nature of the assay: Test Example 3: herbicidal effect by foliage application, Wagner pot (Table 18, symbol E). The format is in vivo, rice flat sedge (Cyperus iria). The note with it: amount of applied herbicide 320 g/ha. An outline of the steps: (§4)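 Plants were sown in alluvial soil held under 0.1–0.5 cm standing water and grown 14 days in a greenhouse at 25–30 °C. An emulsifiable formulation, water-diluted to the set dose, was then sprayed onto the foliage, and effects were scored three weeks later using previously defined criteria.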
In the case of `C=Cc1ccc2sc(-c3ccccc3OC)c(-c3c(O)c(C)nn(C)c3=O)c2c1` [2-185], the “herbicidal effect on E: rice flat sedge” value was 2 (Herbicidal rate of 20% or more and less than 40%).

The next assay has as its system persian speedwell. Nature of the assay: Test Example 4: herbicidal effect by soil treatment (Table 19, symbol R). The class given is in vivo, Persian speedwell (Veronica persica). To be noted: amount of applied herbicide 320 g/ha. An outline of the steps:
as §1
As for `C=Cc1ccc2sc(-c3ccccc3OC)c(-c3c(O)c(C)nn(C)c3=O)c2c1` [2-185], the “R: persian speedwell, herbicidal effect rating” value was 0 (Herbicidal rate of 5% or less (almost no effect)).

The next assay concerns Chinese sprangletop. Nature of the assay: Test Example 3: herbicidal effect by foliage application, Wagner pot (Table 18, symbol D). The format is in vivo, chinese sprangletop (Leptochloa chinensis). To be noted: amount of applied herbicide 320 g/ha. In outline:
as §4
For the molecule `C=Cc1ccc2sc(-c3ccccc3OC)c(-c3c(O)c(C)nn(C)c3=O)c2c1` [2-185], the “herbicidal effect on D: Chinese sprangletop” value was 0 (Herbicidal rate of 5% or less (almost no effect)).

The next assay relates to chickweed. Nature of the assay: Test Example 5: herbicidal effect by foliage application, plastic box (Table 20, symbol P). The class given is in vivo, common chickweed (Stellaria media). To be noted: foliage application, 320 g/ha, evaluated three weeks after application. An outline of the steps:
as §2
Turning to `C=Cc1ccc2sc(-c3ccccc3OC)c(-c3c(O)c(C)nn(C)c3=O)c2c1` [2-185], the “herbicidal effect on P: chickweed (criteria 0-5)” value is listed as 5 (Herbicidal rate of 90% or more (almost completely withered)).

For a further assay, the system named is barnyard grass. Nature of the assay: Test Example 3: herbicidal effect by foliage application, Wagner pot (Table 18, symbol H). The format is in vivo, barnyard grass (Echinochloa crus-galli). To be noted: amount of applied herbicide 320 g/ha. In outline: as §4
In the case of `C=Cc1ccc2sc(-c3ccccc3OC)c(-c3c(O)c(C)nn(C)c3=O)c2c1` [2-185], the “herbicidal effect on H: barnyard grass” value is 3 (Herbicidal rate of 40% or more and less than 70%).

Another assay relates to redroot pigweed. Nature of the assay: Test Example 5: herbicidal effect by foliage application, plastic box (Table 20, symbol N). The class given is in vivo, redroot pigweed (Amaranthus retroflexus). The note with it: foliage application, 320 g/ha, evaluated three weeks after application. In outline:
as §2
For `C=Cc1ccc2sc(-c3ccccc3OC)c(-c3c(O)c(C)nn(C)c3=O)c2c1` [2-185], the “herbicidal effect on N: redroot pigweed (criteria 0-5)” value was 5 (Herbicidal rate of 90% or more (almost completely withered)).

Another assay deals with late watergrass. Nature of the assay: Test Example 1: herbicidal activity, application before weed generation under submerged conditions (Table 16, symbol A). The format is in vivo, late watergrass (Echinochloa oryzicola). To be noted: 320 g/ha applied herbicide. In outline:
as §3
With `C=Cc1ccc2sc(-c3ccccc3OC)c(-c3c(O)c(C)nn(C)c3=O)c2c1` [2-185], the “Herbicidal effect on A: late watergrass (grade 0-5)” value is given as 0 (Herbicidal rate of 5% or less (almost no effect)).

A further assay relates to lambsquarters. Nature of the assay: Test Example 4: herbicidal effect by soil treatment (Table 19, symbol O). The format is in vivo, lambsquarters (Chenopodium album). The note with it: amount of applied herbicide 320 g/ha. An outline of the steps:
as §1
In the case of `C=Cc1ccc2sc(-c3ccccc3OC)c(-c3c(O)c(C)nn(C)c3=O)c2c1` [2-185], the “O: lambsquarters, herbicidal effect rating” value was 1 (Herbicidal rate of 5% or more and less than 20%).

In the next assay the test system is wild oat. Nature of the assay: Test Example 5: herbicidal effect by foliage application, plastic box (Table 20, symbol I). The format is in vivo, wild oat (Avena fatua). To be noted: foliage application, 320 g/ha, evaluated three weeks after application. In outline:
as §2
Consider `C=Cc1ccc2sc(-c3ccccc3OC)c(-c3c(O)c(C)nn(C)c3=O)c2c1` [2-185], for which the “herbicidal effect on I: wild oat (criteria 0-5)” value is 0 (Herbicidal rate of 5% or less (almost no effect)).
